Data published in PubChem BioAssay (NCI).
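Compound exposure: 48 hours, 5 concentrations, 96-well plates. GI50 = concentration required for 50% inhibition of growth. TGI marks complete inhibition of growth.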

Experiments:
Test in all cases: DTP human tumour cell line panel, 48 h
[1] = system: MDA-MB-435
[2] = system: KM12 colon
[3] = system: MDA-MB-468 breast
[4] = system: M14 melanoma
[5] = system: CAKI-1 renal
[6] = system: OVCAR-4 ovarian
[7] = system: HL-60(TB) leukemia
[8] = system: TK-10 renal
[9] = system: SF-539 CNS
[10] = system: SNB-75 CNS
[11] = system: HCT-116 colon
[12] = system: MCF7 breast
[13] = system: NCI-H522 lung
[14] = system: RXF 393 renal
[15] = system: HOP-92 NSCLC
[16] = system: PC-3 prostate
[17] = system: HCC-2998 colon
[18] = system: MDA-MB-231 breast
[19] = system: SK-MEL-5 melanoma
[20] = system: NCI-H460 lung
[21] = system: A549 NSCLC
[22] = system: SK-MEL-2 melanoma
[23] = system: SK-OV-3 ovarian
[24] = system: EKVX NSCLC
[25] = system: SN12C renal
[26] = system: HT29 colon
[27] = system: ACHN renal
[28] = system: OVCAR-5 ovarian
[29] = system: NCI-H226 lung
[30] = system: DU-145 prostate
[31] = system: BT-549 breast
[32] = system: MOLT-4 leukemia
[33] = system: IGROV1 ovarian
[34] = system: NCI-H23 lung
[35] = system: A498 renal
[36] = system: U251 CNS
[37] = system: SR leukemia
[38] = system: SW-620 colon
[39] = system: UACC-62 melanoma
[40] = system: OVCAR-3 ovarian
[41] = system: HS 578T breast
[42] = system: CCRF-CEM leukemia
[43] = system: HOP-62 NSCLC
[44] = system: HCT-15 colon
[45] = system: T-47D breast
[46] = system: RPMI-8226 leukemia
[47] = system: UACC-257 melanoma
[48] = system: SNB-19 CNS
[49] = system: SF-268 CNS
[50] = system: COLO 205 colon
[51] = system: K-562 leukemia
[52] = system: UO-31 renal
[53] = system: SK-MEL-28 melanoma
[54] = system: OVCAR-8 ovarian
[55] = system: SF-295 CNS
[56] = system: MALME-3M melanoma
[57] = system: 786-0 renal
[58] = system: LOX IMVI melanoma

Molecule `C=C1CC[C@@H]2[C@]3(C)COC(c4cn[nH]c4-c4ccc(C)cc4)O[C@@H]3CC[C@@]2(C)[C@@H]1C/C=C1/C(=O)OCC1O` (stereo partly specified) has a GI50 [1] of 7.38 µM, a TGI [1] of 73.9 µM and a GI50 [2] of 13.7 µM. It also gave a TGI [2] of 35.8 µM, a GI50 [3] of 6.94 µM and a TGI [3] of 22.1 µM. It also gave a GI50 [4] of 12.6 µM, a TGI [4] of 26.2 µM and a GI50 [5] of 12.5 µM. The TGI [5] was over 100 µM, the GI50 [6] was 64.8 µM and the TGI [6] was over 100 µM. The GI50 [7] was 3.38 µM, the TGI [7] was 56.4 µM and the GI50 [8] was 22.5 µM. For the same molecule, the TGI [8] was 48.3 µM, the GI50 [9] was 12.7 µM and the TGI [9] was 25.3 µM. For the same molecule, the GI50 [10] was 20.6 µM, the TGI [10] was over 100 µM and the GI50 [11] was 5.33 µM. It also gave a TGI [11] of 20.6 µM, a GI50 [12] of 4.88 µM and a TGI [12] of 19.4 µM. For the same molecule, the GI50 [13] was 7.01 µM, the TGI [13] was 22.5 µM and the GI50 [14] was 12.5 µM. For the same molecule, the TGI [14] was 25 µM, the GI50 [15] was 17.8 µM and the TGI [15] was 42.5 µM. For the same molecule, the GI50 [16] was 21.7 µM, the TGI [16] was over 100 µM and the GI50 [17] was 16.7 µM. For the same molecule, the TGI [17] was 30.4 µM, the GI50 [18] was 19.2 µM and the TGI [18] was 43.5 µM. The GI50 [19] was 12.6 µM, the TGI [19] was 25.3 µM and the GI50 [20] was 20 µM. For the same molecule, the TGI [20] was 46.9 µM, the GI50 [21] was 26.4 µM and the TGI [21] was over 100 µM. It also gave a GI50 [22] of 13.9 µM, a TGI [22] of 30.4 µM and a GI50 [23] of 26.5 µM. It also gave a TGI [23] of 74.8 µM, a GI50 [24] of 18.2 µM and a TGI [24] of 43.8 µM. For the same molecule, the GI50 [25] was 17.3 µM, the TGI [25] was 42.8 µM and the GI50 [26] was 13.1 µM. It also gave a TGI [26] of 45.8 µM, a GI50 [27] of 15.7 µM and a TGI [27] of 36.3 µM. The GI50 [28] was 15.5 µM, the TGI [28] was 32.6 µM and the GI50 [29] was 17.8 µM. For the same molecule, the TGI [29] was 44.7 µM, the GI50 [30] was 24.6 µM and the TGI [30] was over 100 µM. It also gave a GI50 [31] of 11.1 µM, a TGI [31] of 37.8 µM and a GI50 [32] of 5.14 µM. For the same molecule, the TGI [32] was over 100 µM, the GI50 [33] was 17.5 µM and the TGI [33] was 39.7 µM. For the same molecule, the GI50 [34] was 14 µM, the TGI [34] was 27 µM and the GI50 [35] was 21 µM. The TGI [35] was 37.2 µM, the GI50 [36] was 11.9 µM and the TGI [36] was 28.6 µM. For the same molecule, the GI50 [37] was 7.16 µM, the TGI [37] was over 100 µM and the GI50 [38] was 4.6 µM. The TGI [38] was 17.5 µM, the GI50 [39] was 13.3 µM and the TGI [39] was 27 µM. It also gave a GI50 [40] of 3.39 µM, a TGI [40] of 13.8 µM and a GI50 [41] of 63.9 µM. The TGI [41] was over 100 µM, the GI50 [42] was 2.85 µM and the TGI [42] was over 100 µM. It also gave a GI50 [43] of 21.7 µM, a TGI [43] of 75.2 µM and a GI50 [44] of 10.1 µM. It also gave a TGI [44] of 25.5 µM, a GI50 [45] of 13.9 µM and a TGI [45] of over 100 µM. For the same molecule, the GI50 [46] was 4.73 µM, the TGI [46] was over 100 µM and the GI50 [47] was 15.2 µM. For the same molecule, the TGI [47] was 44.4 µM, the GI50 [48] was 14.5 µM and the TGI [48] was 27.6 µM. The GI50 [49] was 34.7 µM, the TGI [49] was over 100 µM and the GI50 [50] was 15.5 µM. The TGI [50] was 29.9 µM, the GI50 [51] was 5.55 µM and the TGI [51] was over 100 µM. For the same molecule, the GI50 [52] was 12.5 µM, the TGI [52] was 25.7 µM and the GI50 [53] was 12.8 µM. The TGI [53] was 27 µM, the GI50 [54] was 9.29 µM and the TGI [54] was over 100 µM. The GI50 [55] was 18.2 µM, the TGI [55] was 36.5 µM and the GI50 [56] was 15.8 µM. For the same molecule, the TGI [56] was 33.5 µM, the GI50 [57] was 16.7 µM and the TGI [57] was 33.2 µM. The GI50 [58] was 3.76 µM and the TGI [58] was 15.7 µM.
